Common to all, as to format: functional
The test system of one experiment is Wickerhamomyces anomalus. Kind of experiment: Antifungal activity against Wickerhamomyces anomalus OPS 308 after 7 days by agar dilution method. To be noted: Hansenula anomala, OPS 308, 168 h.
The test system of experiment [1] is Musca domestica. Put plainly: Insecticidal activity against Musca domestica (house fly) assessed as mortality at 5 ug/insect after 24 hr.
The subject of a further experiment is Penicillium expansum. Kind of experiment: Antifungal activity against Penicillium expansum IFO 8800 after 7 days by agar dilution method. To be noted: IFO 8800, 168 h.
Experiment [2] has as its system Culex pipiens pallens. Kind of experiment: Insecticidal activity against Culex pipiens pallens (mosquito) assessed as mortality at 5 ug/insect after 24 hr.
The next experiment deals with Aspergillus niger. Kind of experiment: Antifungal activity against Aspergillus niger ATCC 16404 after 7 days by agar dilution method. To be noted: ATCC 16404, 168 h. On the technique in general: Agar dilution tests growth on a series of plates holding different concentrations.
Another experiment has as its system Fusarium oxysporum. Kind of experiment: Antifungal activity against Fusarium oxysporum OPS 118 after 7 days by agar dilution method. To be noted: OPS 118, 168 h.
The test system of experiment [3] is Trichophyton mentagrophytes. Kind of experiment: Antifungal activity against Trichophyton mentagrophytes IFO 32412 after 7 days by agar dilution method. To be noted: IFO 32412, 168 h.
Another experiment concerns Candida albicans. Kind of experiment: Antifungal activity against Candida albicans ATCC 10231 after 7 days by agar dilution method. To be noted: ATCC 10231, 168 h.
Experiment [4] has as its system Culex pipiens pallens. Kind of experiment: Insecticidal activity against Culex pipiens pallens (mosquito) assessed as mortality at 0.002 ug/insect after 24 hr.
Experiment [5] relates to Musca domestica. Kind of experiment: Insecticidal activity against Musca domestica (house fly) assessed as mortality at 0.125 ug/insect after 24 hr.
Experiment [6] concerns Culex pipiens pallens. Kind of experiment: Insecticidal activity against Culex pipiens pallens (mosquito) assessed as mortality at 0.001 ug/insect after 24 hr.
For experiment [7], the system named is Musca domestica. Kind of experiment: Insecticidal activity against Musca domestica (house fly) assessed as mortality at 0.031 ug/insect after 24 hr.
Experiment [8] deals with Culex pipiens pallens. Kind of experiment: Insecticidal activity against Culex pipiens pallens (mosquito) assessed as mortality at 0.004 ug/insect after 24 hr.
For experiment [9], the system named is Musca domestica. Kind of experiment: Insecticidal activity against Musca domestica (house fly) assessed as mortality at 0.062 ug/insect after 24 hr.
The test system of experiment [10] is Culex pipiens pallens. Put plainly: Insecticidal activity against Culex pipiens pallens (mosquito) assessed as mortality at 0.00025 ug/insect after 24 hr.
Experiment [11] has as its system Culex pipiens pallens. Kind of experiment: Insecticidal activity against Culex pipiens pallens (mosquito) assessed as mortality at 0.008 ug/insect after 24 hr.
Experiment [12] deals with Musca domestica. Put plainly: Insecticidal activity against Musca domestica (house fly) assessed as mortality at 0.015 ug/insect after 24 hr.
Experiment [13] concerns Culex pipiens pallens. Kind of experiment: Insecticidal activity against Culex pipiens pallens (mosquito) assessed as mortality at 0.0005 ug/insect after 24 hr.
Experiment [14] deals with Musca domestica. Put plainly: Insecticidal activity against Musca domestica (house fly) assessed as mortality at 0.250 ug/insect after 24 hr.
The subject of experiment [15] is Culex pipiens pallens. Kind of experiment: Insecticidal activity against Culex pipiens pallens (mosquito) assessed as mortality at 0.10 ug/insect after 24 hr.
Experiment [16] deals with Culex pipiens pallens. Kind of experiment: Insecticidal activity against Culex pipiens pallens (mosquito) assessed as mortality at 0.05 ug/insect after 24 hr.
Experiment [17] relates to Musca domestica. Kind of experiment: Insecticidal activity against Musca domestica (house fly) assessed as mortality at 2 ug/insect after 24 hr.
Experiment [18] has as its system Culex pipiens pallens. Put plainly: Insecticidal activity against Culex pipiens pallens (mosquito) assessed as mortality at 4 ug/insect after 24 hr.
The test system of experiment [19] is Culex pipiens pallens. Put plainly: Insecticidal activity against Culex pipiens pallens (mosquito) assessed as mortality at 1 ug/insect after 24 hr.
Experiment [20] deals with Musca domestica. Kind of experiment: Insecticidal activity against Musca domestica (house fly) assessed as mortality at 0.5 ug/insect after 24 hr.
Experiment [21] deals with Musca domestica. Put plainly: Insecticidal activity against Musca domestica (house fly) assessed as mortality at 0.10 ug/insect after 24 hr.
Experiment [22] relates to Culex pipiens pallens. Kind of experiment: Insecticidal activity against Culex pipiens pallens (mosquito) assessed as mortality at 0.25 ug/insect after 24 hr.
The test system of experiment [23] is Culex pipiens pallens. Kind of experiment: Insecticidal activity against Culex pipiens pallens (mosquito) assessed as mortality at 0.025 ug/insect after 24 hr.
For experiment [24], the system named is Musca domestica. Put plainly: Insecticidal activity against Musca domestica (house fly) assessed as mortality at 0.25 ug/insect after 24 hr.
Experiment [25] relates to Musca domestica. Kind of experiment: Insecticidal activity against Musca domestica (house fly) assessed as mortality at 1 ug/insect after 24 hr.
Experiment [26] has as its system Musca domestica. Put plainly: Insecticidal activity against Musca domestica (house fly) assessed as mortality at 0.05 ug/insect after 24 hr.
The test system of experiment [27] is Musca domestica. Kind of experiment: Insecticidal activity against Musca domestica (house fly) assessed as mortality at 4 ug/insect after 24 hr.
Experiment [28] deals with Culex pipiens pallens. Put plainly: Insecticidal activity against Culex pipiens pallens (mosquito) assessed as mortality at 0.5 ug/insect after 24 hr.
In experiment [29] the test system is Culex pipiens pallens. Kind of experiment: Insecticidal activity against Culex pipiens pallens (mosquito) assessed as mortality at 2 ug/insect after 24 hr.

Experimental findings from ChEMBL document CHEMBL3046198, “Insecticidal and antifungal activities of aminorhodanine derivatives” (1998) are described below.

As usually defined, the MIC is the lowest concentration that inhibits growth of the organism. The low end stands for greater potency, the high end for weaker potency.

The structures appear in SMILES notation. ≈ marks a conversion by molar mass, not a printed value.

As to `O=C(NN1C(=O)CSC1=S)c1ccccc1` [N-BENZOYLAMINORHODANINE], the minimum inhibitory concentration (MIC) (against Wickerhamomyces anomalus; against Penicillium expansum; against Aspergillus niger; against Fusarium oxysporum; in experiment [3]; in the experiment on Candida albicans) was more than 1000 µg/mL in each case. Moreover, the Activity with Musca domestica [1] and in the experiment with Culex pipiens pallens [2] was 0% each time.
Consider `O=C1CSC(=S)N1` [RHODANINE], for which the minimal inhibitory concentration (MIC) is 400 µg/mL (≈ 3 mM) against Wickerhamomyces anomalus; more than 1000 µg/mL with Penicillium expansum; 800 µg/mL (≈ 6.01 mM) with Aspergillus niger; 800 µg/mL (≈ 6.01 mM) against Fusarium oxysporum; 200 µg/mL (≈ 1.5 mM) in experiment [3]; 800 µg/mL (≈ 6.01 mM) in the experiment with Candida albicans. For the same molecule, the Activity in the experiment with Musca domestica [1] and with Culex pipiens pallens [2] was 0% throughout.
Consider `CC(=O)NN1C(=O)CSC1=S` [N-ACETYLAMINORHODANINE], for which the MIC (in the experiment with Wickerhamomyces anomalus; in the experiment on Penicillium expansum; against Aspergillus niger; in the experiment on Fusarium oxysporum; in experiment [3]; in the experiment on Candida albicans) was more than 1000 µg/mL each time. Further, the Activity in the experiment with Musca domestica [1] and with Culex pipiens pallens [2] was 0% in each case.
As to `COP(=S)(OC)Oc1ccc([N+](=O)[O-])c(C)c1` [FENITROTHION], the Activity in the experiment with Culex pipiens pallens [4] is 50%; in the experiment on Musca domestica [5], 93.3%; in the experiment with Culex pipiens pallens [6], 16.7%; with Musca domestica [7] it was 3.3%; in the experiment with Culex pipiens pallens [8], 86.7%; with Musca domestica [9] it was 46.7%. In addition, the Activity in the experiment with Culex pipiens pallens [10] is on record as 0%; in the experiment on Culex pipiens pallens [11] it was 100%; in the experiment with Musca domestica [12], 0%; in the experiment on Culex pipiens pallens [13] it was 3.3%; in the experiment with Musca domestica [14] it was 100%.
Turning to `NN1C(=O)CSC1=S` [AMINORHODANINE], the MIC was found to be 25 µg/mL (≈ 0.169 mM) in the experiment with Wickerhamomyces anomalus; 100 µg/mL (≈ 0.675 mM) in the experiment on Penicillium expansum; 6.25 µg/mL (≈ 0.0422 mM) in the experiment on Aspergillus niger; 400 µg/mL (≈ 2.7 mM) with Fusarium oxysporum; 12.5 µg/mL (≈ 0.0843 mM) in [3]; 12.5 µg/mL (≈ 0.0843 mM) against Candida albicans. In addition, the Activity in the experiment with Culex pipiens pallens [15] was 33.3%; with Culex pipiens pallens [16], 16.7%; in the experiment on Musca domestica [17], 63.3%; with Musca domestica [1], 100%; in the experiment on Culex pipiens pallens [18], 100%; in the experiment on Culex pipiens pallens [19], 86.7%. The Activity amounted to 100% in the experiment with Culex pipiens pallens [2]; 36.7% with Musca domestica [20]; 10% in the experiment with Musca domestica [21]; 53.3% in the experiment with Culex pipiens pallens [22]; 3.3% with Culex pipiens pallens [23]; 17.9% with Musca domestica [24]. Besides, the Activity in the experiment with Musca domestica [25] amounted to 60%; in the experiment on Musca domestica [26], 0%; in the experiment on Musca domestica [27] it was 86.7%; with Culex pipiens pallens [28], 60%; in the experiment on Culex pipiens pallens [29], 100%.
